From US20170306409A1, “CANCER PATIENT SELECTION FOR ADMINISTRATION OF WNT SIGNALING INHIBITORS USING RNF43 MUTATION STATUS” (NOVARTIS AG, priority 2012, published 2017)

Experiments:
Type in all cases: cell-based, human
KP2 = assay: foci formation assay; conditions: 1 μM LGK974
Description: (§1) To assay foci formation, 6,000˜12,000 cells of indicated cell lines were seeded in 6 well tissue culture plate in 2 ml growth media. After overnight culture for cell attachment, media was replaced with fresh growth media containing 1 μM LGK974 in the absence and presence of recombinant Wnt3a. For DOX-inducible β-catenin shRNA experiment, cells were treated 5 ng/ml doxycycline. When cell colonies reached desirable size, cells were fixed with 4% formalin in PBS and stained with crystal violet solution. After a few washes, plates were dried and imaged.
(§2) Identification of pancreatic cancer lines containing inactivation mutation of RNF43. Discovery of LGK974, a potent and selective inhibitor of Porcupine, offered us a unique chemical tool to systemically examine Wnt dependency in a large panel of cancer cell lines. We tested LGK974 in a large panel of pancreatic cancer cell lines using foci formation assay. Foci formation assay was utilized because it is more sensitive than routine growth assays such as CellTiter-Glo, and it is less affected by the different growth rates of various cell lines.

BXPC3 = assay: foci formation assay; conditions: 1 μM LGK974
Description: as §1, §2

Panc03.27 = assay: foci formation assay; conditions: 1 μM LGK974
Description: as §1, §2

PK45H = assay: foci formation assay; conditions: 1 μM LGK974
Description: as §1, §2

PK-59 = assay: cell line proliferation assay (Cell Titer Glo)
Description: (§3) The sensitivity of pancreatic cells to LGK974 treatment were tested in a cellular proliferation assay in vitro. Twenty four human pancreatic cancer cell lines were treated with or without LGK974. Cellular proliferation data was generated in 384 well format. Cells were harvested and resuspended in their appropriate growth medium at a density of 1.5×10^4 cells per mL. […] Plates were then transferred to incubators on the ACP-1 system (37° C., 5% CO2) and cells were allowed to attach overnight. […] Following compound addition, plates were returned to the incubator for 120 hours. The assay plates were read with the addition of 10 μL of 1× Cell Titer Glo (Promega G7573) according to the manufacturer's instructions. Plates were then incubated at room temperature for ten minutes and read on the integrated Perkin Elmer Viewlux (2 second exposure, 2× bin, high sensitivity). The raw data was normalized using the DMSO control wells within each plate and the curve fitting for IC50 determination was performed. Cell growth was measured five days later with Cell Titer Glo (Promega). […] As shown in TABLE 4 and Example 4, all four cell lines harbor RNF43 loss-of-function (LOF) mutations

KP-3 = assay: cell line proliferation assay (Cell Titer Glo)
Description: as §3

HPAFII = assay: soft agar assay; conditions: 1 μM LGK974
Description: (§4) Further, LGK974 induced the expression of differentiation marker MUC2, MUC5A/C in RNF43 mutant cells. LGK974 blocked EDU incorporation in RNF43 mutant cell lines, so Wnt inhibition in these cells leads to cell cycle arrest. LGK974-induced growth inhibition and cellular differentiation of RNF43 mutant cells are also obvious using Ki67 staining (anti-Ki67 (SP6) from Vector Laboratories, Burlingame, Calif., USA 94010) and Alcian Blue staining.
(§5) For soft agar assay, cells were suspended in 250 μl of 0.3% low melting agarose (Lonza) in DMEM containing 10% FBS, and plated onto 250 μl of solidified 0.8% agarose containing DMEM in 48-well culture plates at a density of 5,000-10,000 cells per well. 250 μl of growth medium were added on top of the cells after plate was cooled at Rt for 30 minutes. The plate was then incubated at 37° C. in a humidified atmosphere containing 5% CO2. The cells were treated with fresh growth medium containing DMSO or 1 μM LGK974 every 3-4 days. When colonies reached desirable size, photographs were taken and colonies were stained with AlamarBlue (from Invitrogen, Life Technologies, Grand Island, N.Y., USA 14072) according to the manufacturer's instruction. These experiments were repeated three times, and at least four wells were replicated each time for each condition.

PK1 = assay: soft agar assay; conditions: 1 μM LGK974
Description: as §4, §5

PaTu-8988S = assay: soft agar assay; conditions: 1 μM LGK974
Description: as §4, §5

[1] = system: RNF43 wild-type cell lines; assay: immunoblot and qPCR assays
Description: (§6) For reverse transcription and quantitative PCR (qPCR), total RNA was extracted from cells or tumors using the RNeasy Plus Mini Kit (Qiagen). 1 μg of RNA were reverse transcribed with Taqman Reverse Transcription Reagents (Applied Biosystems) according to the manufacturer's instruction. Quantitative PCR was performed in 12 μl reactions consisting of 0.6 μl of 20× Taqman probe and PCR primer mix, 6 μl 2× Taqman FAST Advanced Master Mix (Applied Biosystems), and 5.4 μl diluted cDNA template. The thermocycling conditions utilized were 20 seconds at 95° C., followed by 40 cycles of 1 second at 95° C. and 20 seconds at 60° C. All experiments were performed in quadruplicates. Gene expression analysis was performed using the comparative ΔΔCT method and normalized with the housekeeping gene GUSB or 18S. The Taqman probes were purchased from Applied Biosystems.
(§7) We next characterized Wnt-dependency in pancreatic cancer cell lines.
(§8) For immunoblotting, total cell lysates were prepared by lysing cells using RIPA buffer (50 mM Tris-HCl, pH 7.4, 150 mM NaCl, 1% NP-40, 0.5% sodium deoxycholate, 0.1% SDS, 1 mM EDTA) supplemented with protease inhibitors and phosphatase inhibitors, followed by centrifugation at 14,000 rpm for 10 min at 4° C. For cytosolic β-catenin extraction, cell pellets were resuspended in hypotonic buffer (10 mM Tris-HCl, pH 7.5 and 10 mM KCl, supplemented with protease/phosphatase inhibitors) and lysed by three freeze-thaw cycles. Equal amount of proteins were resolved by SDS-PAGE, transferred to nitrocellulose membranes, and incubated with primary antibodies for overnight at 4° C. Secondary antibodies conjugated with either HRP or infrared dyes were used for signal visualization by ECL film or LI-COR Odyssey scanner, respectively.

RNF43 mutant cell lines = assay: immunoblot and qPCR assays
Description: as §6, §7, §8

TCC-PAN2 = assay: pathway inhibition by LGK974 (Table 4)
RNF43 mutant cells = assay: foci formation assay with recombinant Wnt3a; conditions: 1 μM of LGK974 together with recombinant Wnt3a
Source text: as §7

[2] = Homo sapiens, 120 hours, Cell Titer Glo, read-out: LGK974 IC50s in cell line proliferation assay

Cc1cc(-c2ncc(CC(=O)Nc3ccc(-c4cnccn4)cn3)cc2C)ccn1 [LGK974, 2-[5-methyl-6-(2-methylpyridin-4-yl)pyridin-3-yl]-N-[5-(pyrazin-2-yl)pyridin-2-yl]acetamide]
Growth inhibition in foci formation assay (KP2): No
Growth inhibition in foci formation assay (BXPC3): No
Growth inhibition in foci formation assay (Panc03.27): No
Growth inhibition in foci formation assay (PK45H): No
Inhibition fold change (1-Treated/Control) (PK-59): 0.06
IC50 (PK-59; [2]): > 2000 nM
Inhibition fold change (1-Treated/Control) (KP-3): 0.02
IC50 (KP-3; [2]): > 2000 nM
proliferation in soft agar assay (HPAFII): strongly inhibited
proliferation in soft agar assay (PK1): not
proliferation in soft agar assay (PaTu-8988S): strongly inhibited
cytosolic β-catenin [1]: decreased
expression of MYC [1]: not
expression of cyclin dependent kinase inhibitor p21 [1]: not
expression of β-catenin target gene AXIN2 [1]: decreased
cytosolic β-catenin (RNF43 mutant cell lines; RNF43 mutant cell lines): decreased
expression of MYC (RNF43 mutant cell lines; RNF43 mutant cell lines): decreased
expression of cyclin dependent kinase inhibitor p21 (RNF43 mutant cell lines; RNF43 mutant cell lines): increased
expression of β-catenin target gene AXIN2 (RNF43 mutant cell lines; RNF43 mutant cell lines): decreased
expression of differentiation marker MUC2, MUC5A/C (RNF43 mutant cell lines; RNF43 mutant cells): induced
Pathway inhibition (TCC-PAN2): Yes
growth inhibitory effect with exogenous Wnt3a (RNF43 mutant cells): rescued
